# Experimental data as given in PMC12833730, “Discovery of a First‐in‐Class Covalent Allosteric SHP1 Inhibitor with Immunotherapeutic Activity” (Angewandte Chemie (International Ed. in English), 2025).
# Entries after “also recorded” stand apart in the source; their conditions may differ.
# Test system: SHP1 KO Jurkat T cells
# Experiment: TCR-LCK signaling in SHP1 KO cells
# Format: cell-based
# Description: Supernatants from lysed cells were reduced, treated with iodoacetamide to cap thiol residues, and digested by trypsin for bottom‐up proteomics analysis. […] LCK is the direct substrate of SHP1 and ERK1/2, and PLCγ is the downstream effector protein of LCK‐mediated TCR signaling. […] Statistical analyses were performed with Graphpad Prism software 10.4.2 through the one‐way ANOVA test using Turkey post‐hoc comparison. ****p < 0.0001 was considered significant.
# To further confirm M029 cellular target engagement, we investigated the effect of M029 on T cell function. SHP1 plays a negative role in T cells, and deletion of SHP1 in T cells lowers the activation threshold and enhances antitumor immunity.^[ [30], [31], [32], [33] ^] Mechanistically, SHP1 attenuates T cell receptor (TCR) signaling via dephosphorylation of the lymphocyte‐specific protein tyrosine kinase LCK.^[ [31], [84], [85], [86] ^] T cell activation leads to increased expression and secretion of interleukin 2 (IL‐2)^[ [87] ^] while the removal of SHP1 in T cells enhances IL‐2 production, cell proliferation, and cytolysis capacity.^[ [30], [32] ^] Accordingly, we sought to assess the impact of targeting SHP1 with M029 on TCR‐LCK signaling and T cell activation. […] M029 also dose‐dependently promoted IL‐2 production (Figure 4c). […]
structure (smiles),measurement,value
"N#Cc1ccsc1NS(=O)(=O)c1ccc(NC(=O)CCl)cc1 [M029, 2-Chloro-N-(4-(N-(3-cyanothiophen-2-yl)sulfamoyl)phenyl)acetamide]","LCK, PLCγ, and ERK1/2 phosphorylation in SHP1-deleted cells",abolished; also recorded: unable to alter
